Data published in US11738021B2, “Composition and method for preventing, alleviating or treating cancer” (CKP Therapeutics, Inc., priority 2021, dated 2023).

Tests used:
YUMC-H2 cell line = experiment: MTT cell viability, anticancer drug-resistant YUMC-H2 cell line; assay type: cell-based, human; conditions: drug alone at 200 μM, FIG. 2
YUMC-P1 cell line = experiment: MTT cell viability, anticancer drug-resistant YUMC-P1 cell line; assay type: cell-based, human; conditions: drug alone at 200 μM, FIG. 2
[1] = test system: YUMC-H2 cell line xenograft; conditions: YUMC-H2 xenograft mice, oral, 13 times over 41 days, doses per Table 3
Procedure: (§1) 15 days after injection of each of the cell lines, when the tumor volume reached about 100 to 200 mm^3, mice having a tumor with the above volume were randomly grouped (n=10/group), and then each drug was administered to the mice 13 times for a total of 41 days under the conditions shown in Table 3 below. […] Here, nothing was administered to the control group.

[2] = test system: YUMC-P1 cell line xenograft; conditions: YUMC-P1 xenograft mice, oral, 13 times over 41 days, doses per Table 3
Procedure: as §1

[3] = test system: YUMC-C1 cell line xenograft; assay type: in vivo; conditions: YUMC-C1 xenograft mice, oral, 13 times over 41 days, doses per Table 3
Procedure: as §1

YUMC-C1 cell line = conditions: drug alone at 200 μM, FIG. 2
Procedure: Each of the YUMC-C1, YUMC-H2 and YUMC-P1 cell lines of Example 1 was inoculated into 96-well plates at a density of 6×10^3 cells/well and then cultured overnight to a confluence of 90%. […] However, when 1-(2-fluorophenyl)-4,6-dimethyl-1H,2H,3H-pyrrolo[3,2-c]quinoline was used in combination with oxaliplatin or sorafenib, the treatment concentration of each of oxaliplatin and sorafenib was 30 μM. Thereafter, cell viability was measured using the MTT reagent. The absorbance was measured at 550 nm, and viable cells were counted using trypan blue staining.

CNC(=O)c1cc(Oc2ccc(NC(=O)Nc3ccc(Cl)c(C(F)(F)F)c3)cc2)ccn1 [sorafenib]
cells survived (YUMC-H2 cell line): more than 80%
cells survived (YUMC-P1 cell line): more than 80%
tumor volume ([1]; FIG. 3): no significant changes
tumor weight ([1]; FIG. 4): no significant changes
tumor volume ([2]; FIG. 3): no significant changes
tumor weight ([2]; FIG. 4): no significant changes

Cc1nc2c(C)cccc2c2c1CCN2c1ccccc1F [Candidate 19]
changes in mouse body weight (toxicity) ([3]; FIG. 5): no changes
changes in mouse body weight (toxicity) ([1]; FIG. 5): no changes
changes in mouse body weight (toxicity) ([2]; FIG. 5): no changes

O=C1[O][Pt]2([NH][C@@H]3CCCC[C@H]3[NH]2)[O]C1=O [oxaliplatin]
tumor volume ([3]; vs control, FIG. 3): did not significantly decrease
tumor weight ([3]; vs control, FIG. 4): did not significantly decrease
cells survived (YUMC-C1 cell line): more than 80%
